The record followed here is the OligoGym collection.

HELM strings list units from the 5' end as sugar, base in round brackets, then linkage (d deoxyribose, r ribose, m 2'-O-methyl, p phosphodiester). Strings are as the collection lists them; they lack the last nucleoside at the 3' end of the tested compound. [moe] = 2'-O-(2-methoxyethyl) (MOE); [sp] = phosphorothioate linkage; [m5C] = 5-methylcytosine

This data set concerns the target LRRK2. In words: mouse, dose not given. As to conditions: ASO.
Take “RNA1{[moe](T)[sp].[moe](T)p.[moe](G)[sp].[moe](G)[sp].[moe]([m5C])[sp].d(T)[sp].d(G)[sp].d(G)[sp].d(A)[sp].d(A)[sp].d(A)[sp].d(T)[sp].d(G)[sp].d(A)[sp].d(G)[sp].[moe](T)[sp].[moe](G)p.[moe]([m5C])[sp].[moe](A)}$$$$ (last 3' nucleoside missing)”: the 3 h FOB score is 6 score 0-7.

On to “RNA1{[moe](G)[sp].[moe]([m5C])p.[moe](T)p.[moe](G)p.[moe](T)[sp].d(A)[sp].d(A)[sp].d(T)[sp].d(A)[sp].d([m5C])[sp].d(G)[sp].d(G)[sp].d([m5C])[sp].d(A)[sp].d(T)[sp].[moe]([m5C])p.[moe](T)p.[moe]([m5C])[sp].[moe](G)}$$$$ (last 3' nucleoside missing)”, for which the 3 h FOB score was 6 score 0-7. As for “RNA1{[moe]([m5C])[sp].[moe]([m5C])p.[moe](A)p.[moe](T)p.[moe](A)[sp].d(T)[sp].d(T)[sp].d(T)[sp].d(A)[sp].d(G)[sp].d([m5C])[sp].d(T)[sp].d(T)[sp].d(A)[sp].d(T)[sp].[moe](G)p.[moe](A)p.[moe](T)[sp].[moe](G)}$$$$ (last 3' nucleoside missing)”, the figure is 7 score 0-7. “RNA1{[moe](A)[sp].[moe](A)p.[moe](T)[sp].[moe](G)[sp].[moe](A)[sp].d(G)[sp].d(T)[sp].d(G)[sp].d([m5C])[sp].d(A)[sp].d(T)[sp].d(G)[sp].d(G)[sp].d([m5C])[sp].d(A)[sp].[moe](T)[sp].[moe]([m5C])p.[moe](A)[sp].[moe](A)}$$$$ (last 3' nucleoside missing)” came in with a 3 h FOB score of 3 score 0-7.

“RNA1{[moe](A)[sp].[moe](A)p.[moe]([m5C])[sp].[moe](G)[sp].[moe]([m5C])[sp].d(A)[sp].d([m5C])[sp].d(T)[sp].d(T)[sp].d(A)[sp].d(A)[sp].d([m5C])[sp].d(A)[sp].d(A)[sp].d(T)[sp].[moe](A)[sp].[moe](T)p.[moe]([m5C])[sp].[moe](A)}$$$$ (last 3' nucleoside missing)” had a 3 h FOB score of 0 score 0-7. In the case of “RNA1{[moe](A)[sp].[moe](G)p.[moe](T)[sp].[moe](G)[sp].[moe]([m5C])[sp].d(A)[sp].d(T)[sp].d(G)[sp].d(G)[sp].d([m5C])[sp].d(A)[sp].d(T)[sp].d([m5C])[sp].d(A)[sp].d(A)[sp].[moe](A)[sp].[moe](A)p.[moe](A)[sp].[moe](T)}$$$$ (last 3' nucleoside missing)”, the 3 h FOB score was found to be 2 score 0-7. Under “RNA1{[moe](T)[sp].[moe](G)p.[moe](A)[sp].[moe](G)[sp].[moe](T)[sp].d(G)[sp].d([m5C])[sp].d(A)[sp].d(T)[sp].d(G)[sp].d(G)[sp].d([m5C])[sp].d(A)[sp].d(T)[sp].d([m5C])[sp].[moe](A)[sp].[moe](A)p.[moe](A)[sp].[moe](A)}$$$$ (last 3' nucleoside missing)” stands 5 score 0-7; under “RNA1{[moe]([m5C])[sp].[moe](T)p.[moe](G)[sp].[moe](T)[sp].[moe]([m5C])[sp].d(A)[sp].d([m5C])[sp].d([m5C])[sp].d(T)[sp].d(T)[sp].d(T)[sp].d([m5C])[sp].d([m5C])[sp].d([m5C])[sp].d(A)[sp].[moe](A)[sp].[moe](T)p.[moe](G)[sp].[moe]([m5C])}$$$$ (last 3' nucleoside missing)”, 3 score 0-7; under “RNA1{[moe](G)[sp].[moe]([m5C])p.[moe](A)p.[moe]([m5C])p.[moe](A)[sp].d([m5C])[sp].d(A)[sp].d(G)[sp].d(T)[sp].d(G)[sp].d(T)[sp].d(A)[sp].d(G)[sp].d(T)[sp].d([m5C])[sp].[moe](A)p.[moe](T)p.[moe](A)[sp].[moe]([m5C])}$$$$ (last 3' nucleoside missing)”, 2 score 0-7.

In turn, “RNA1{[moe]([m5C])[sp].[moe](T)p.[moe](T)[sp].[moe]([m5C])[sp].[moe](A)[sp].d(G)[sp].d(T)[sp].d(T)[sp].d([m5C])[sp].d([m5C])[sp].d(T)[sp].d(T)[sp].d([m5C])[sp].d(A)[sp].d(G)[sp].[moe](T)[sp].[moe]([m5C])p.[moe](T)[sp].[moe]([m5C])}$$$$ (last 3' nucleoside missing)” yielded a 3 h FOB score of 6 score 0-7. As for “RNA1{[moe](T)[sp].[moe](G)p.[moe]([m5C])p.[moe](T)p.[moe](G)[sp].d([m5C])[sp].d(T)[sp].d([m5C])[sp].d(A)[sp].d(T)[sp].d(A)[sp].d(T)[sp].d([m5C])[sp].d(T)[sp].d(A)[sp].[moe](A)p.[moe](A)p.[moe](G)[sp].[moe](A)}$$$$ (last 3' nucleoside missing)”, the figure is 0 score 0-7; as for “RNA1{[moe]([m5C])[sp].[moe]([m5C])p.[moe](A)[sp].[moe]([m5C])[sp].[moe](A)[sp].d(A)[sp].d(A)[sp].d([m5C])[sp].d(T)[sp].d([m5C])[sp].d(A)[sp].d(T)[sp].d(G)[sp].d(G)[sp].d(A)[sp].[moe]([m5C])p.[moe](T)p.[moe](T)[sp].[moe]([m5C])}$$$$ (last 3' nucleoside missing)”, 5 score 0-7; as for “RNA1{[moe](A)[sp].[moe]([m5C])p.[moe](G)[sp].[moe]([m5C])[sp].[moe](A)[sp].d([m5C])[sp].d(T)[sp].d(T)[sp].d(A)[sp].d(A)[sp].d([m5C])[sp].d(A)[sp].d(A)[sp].d(T)[sp].d(A)[sp].[moe](T)[sp].[moe]([m5C])p.[moe](A)[sp].[moe](T)}$$$$ (last 3' nucleoside missing)”, 1 score 0-7. Under “RNA1{[moe]([m5C])[sp].[moe](T)p.[moe](G)[sp].[moe](T)[sp].[moe](T)[sp].d(A)[sp].d(T)[sp].d(T)[sp].d([m5C])[sp].d(T)[sp].d(G)[sp].d(A)[sp].d(T)[sp].d([m5C])[sp].d(A)[sp].[moe]([m5C])[sp].[moe](A)p.[moe]([m5C])[sp].[moe](G)}$$$$ (last 3' nucleoside missing)” stands 5 score 0-7; under “RNA1{[moe](T)[sp].[moe](T)p.[moe](T)[sp].[moe]([m5C])[sp].[moe](A)[sp].d(T)[sp].d(T)[sp].d([m5C])[sp].d(G)[sp].d(G)[sp].d(T)[sp].d(T)[sp].d(A)[sp].d(T)[sp].d(A)[sp].[moe](A)[sp].[moe](G)p.[moe](G)[sp].[moe]([m5C])}$$$$ (last 3' nucleoside missing)”, 7 score 0-7; under “RNA1{[moe](T)[sp].[moe]([m5C])p.[moe](T)[sp].[moe](T)[sp].[moe]([m5C])[sp].d(A)[sp].d(G)[sp].d(T)[sp].d(T)[sp].d([m5C])[sp].d([m5C])[sp].d(T)[sp].d(T)[sp].d([m5C])[sp].d(A)[sp].[moe](G)[sp].[moe](T)p.[moe]([m5C])[sp].[moe](T)}$$$$ (last 3' nucleoside missing)”, 3 score 0-7. In the case of “RNA1{[moe](T)[sp].[moe](A)p.[moe](A)[sp].[moe]([m5C])[sp].[moe](G)[sp].d([m5C])[sp].d(A)[sp].d([m5C])[sp].d(T)[sp].d(T)[sp].d(A)[sp].d(A)[sp].d([m5C])[sp].d(A)[sp].d(A)[sp].[moe](T)[sp].[moe](A)p.[moe](T)[sp].[moe]([m5C])}$$$$ (last 3' nucleoside missing)”, the 3 h FOB score was 2 score 0-7.

“RNA1{[moe](A)[sp].[moe](T)p.[moe](G)p.[moe]([m5C])p.[moe](A)[sp].d(G)[sp].d(T)[sp].d(T)[sp].d(T)[sp].d([m5C])[sp].d(T)[sp].d([m5C])[sp].d(T)[sp].d(A)[sp].d([m5C])[sp].[moe](T)p.[moe]([m5C])p.[moe](T)[sp].[moe](A)}$$$$ (last 3' nucleoside missing)” gave a 3 h FOB score of 0 score 0-7. Substance “RNA1{[moe](A)[sp].[moe](G)[sp].[moe](T)[sp].[moe](T)[sp].[moe]([m5C])[sp].d([m5C])[sp].d(T)[sp].d(T)[sp].d([m5C])[sp].d(A)[sp].d(G)[sp].d(T)[sp].d([m5C])[sp].d(T)[sp].d([m5C])[sp].[moe](A)[sp].[moe](A)p.[moe](G)[sp].[moe](G)}$$$$ (last 3' nucleoside missing)” showed a 3 h FOB score of 7 score 0-7.

The substance “RNA1{[moe](G)[sp].[moe](T)p.[moe](T)p.[moe](T)p.[moe]([m5C])[sp].d(A)[sp].d(T)[sp].d(T)[sp].d([m5C])[sp].d(G)[sp].d(G)[sp].d(T)[sp].d(T)[sp].d(A)[sp].d(T)[sp].[moe](A)p.[moe](A)p.[moe](G)[sp].[moe](G)}$$$$ (last 3' nucleoside missing)” yielded a 3 h FOB score of 7 score 0-7. As for “RNA1{[moe](G)[sp].[moe](T)p.[moe](T)[sp].[moe](T)[sp].[moe]([m5C])[sp].d(A)[sp].d(T)[sp].d(T)[sp].d([m5C])[sp].d(G)[sp].d(G)[sp].d(T)[sp].d(T)[sp].d(A)[sp].d(T)[sp].[moe](A)[sp].[moe](A)p.[moe](G)[sp].[moe](G)}$$$$ (last 3' nucleoside missing)”, the figure is 7 score 0-7; as for “RNA1{[moe](G)[sp].[moe](T)p.[moe](G)p.[moe](A)p.[moe](A)[sp].d(G)[sp].d([m5C])[sp].d(A)[sp].d([m5C])[sp].d(T)[sp].d(G)[sp].d(A)[sp].d(A)[sp].d(T)[sp].d([m5C])[sp].[moe]([m5C])p.[moe](A)p.[moe](T)[sp].[moe](A)}$$$$ (last 3' nucleoside missing)”, 6 score 0-7; as for “RNA1{[moe](A)[sp].[moe](T)p.[moe]([m5C])p.[moe]([m5C])p.[moe](A)[sp].d([m5C])[sp].d(A)[sp].d(T)[sp].d(T)[sp].d(T)[sp].d([m5C])[sp].d(T)[sp].d(G)[sp].d(A)[sp].d(A)[sp].[moe](T)p.[moe]([m5C])p.[moe]([m5C])[sp].[moe]([m5C])}$$$$ (last 3' nucleoside missing)”, 4 score 0-7. Under “RNA1{[moe](A)[sp].[moe](A)p.[moe](A)[sp].[moe](T)[sp].[moe](G)[sp].d(A)[sp].d(G)[sp].d(T)[sp].d(G)[sp].d([m5C])[sp].d(A)[sp].d(T)[sp].d(G)[sp].d(G)[sp].d([m5C])[sp].[moe](A)[sp].[moe](T)p.[moe]([m5C])[sp].[moe](A)}$$$$ (last 3' nucleoside missing)” stands 4 score 0-7.
